Laboratory results from ChEMBL document CHEMBL2429811, “Novel selective and potent inhibitors of malaria parasite dihydroorotate dehydrogenase: discovery and optimization of dihydrothiophenone derivatives” (J Med Chem, 2013).

Biological target: Dihydroorotate dehydrogenase (quinone), mitochondrial (Homo sapiens, UniProt Q02127)
Assay: Inhibition of N-terminal His10-tagged human DHODH (Met30 to Arg396) expressed in Escherichia coli BL21 (DE3) using dihydroorotate as substrate measured every 30 secs for 6 mins by DCIP dye-based assay
Details: not given

Dihydroorotate dehydrogenase (quinone), mitochondrial, sequence (Q02127 whole entry): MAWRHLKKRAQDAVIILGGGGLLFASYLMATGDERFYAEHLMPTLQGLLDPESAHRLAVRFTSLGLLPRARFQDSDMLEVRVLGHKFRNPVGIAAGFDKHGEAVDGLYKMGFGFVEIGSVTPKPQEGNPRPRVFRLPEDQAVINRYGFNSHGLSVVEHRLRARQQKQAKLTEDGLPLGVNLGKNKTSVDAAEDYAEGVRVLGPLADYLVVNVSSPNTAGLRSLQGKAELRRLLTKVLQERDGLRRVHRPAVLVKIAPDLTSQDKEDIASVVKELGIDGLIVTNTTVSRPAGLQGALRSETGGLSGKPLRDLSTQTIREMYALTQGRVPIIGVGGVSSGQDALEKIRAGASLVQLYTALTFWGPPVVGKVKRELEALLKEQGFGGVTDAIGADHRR

Compound | IC50 [µM]
CCOC(=O)C1=C(Nc2ccc(Cl)cc2)SCC1=O | > 50
CCCNC(=O)C1=C(Nc2ccc(C)c(C)c2)SCC1=O | 6.3
Cc1ccc(NC2=C(C(=O)NCC3CC3)C(=O)CS2)cc1C | 1.84
COC(=O)C1=C(Nc2ccc(C)c(C)c2)SCC1=O | > 50
CCOC(=O)C1=C(Nc2ccc(S(F)(F)(F)(F)F)cc2)SCC1=O | > 50
CCOC(=O)C1=C(Nc2ccc(C)c(C)c2)OCC1=O | > 50
CCOC(=O)C1=C(Nc2ccc(C(F)(F)F)cc2)SCC1=O | > 50
CCCCOC(=O)C1=C(Nc2ccc3ccccc3c2)SCC1=O | > 50
CCCOC(=O)C1=C(Nc2ccc(C)c(C)c2)SCC1=O | 11.6
CCOC(=O)C1=C(Nc2cccc(C(F)(F)F)c2)SCC1=O | > 50
Cc1ccc(NC2=C(C(=O)O)C(=O)CS2)cc1C | > 50
O=C1CSC(Nc2ccc3ccccc3c2)=C1C(=O)NC1CC1 | > 50
CCOC(=O)C1=C(Nc2ccc3cc4ccccc4cc3c2)SCC1=O | > 50
CCOC(=O)C1=C(Nc2cnc3ccccc3c2)OCC1=O | > 50
CCOC(=O)C1=C(Nc2ccc(C(F)(F)F)cc2)OCC1=O | > 50
CCOC(=O)C1=C(Nc2ccc(C)c(F)c2)SCC1=O | > 50
CCOC(=O)C1=C(Nc2ccc(S(F)(F)(F)(F)F)cc2)OCC1=O | > 50
CCNC(=O)C1=C(Nc2ccc3ccccc3c2)SCC1=O | > 50
Cc1ccc(NC2=C(C(=O)NC3CC3)C(=O)CS2)cc1C | 4.11
CCOC(=O)C1=C(Nc2cc(Cl)cc(Cl)c2)SCC1=O | > 50
CCCCNC(=O)C1=C(Nc2ccc3ccccc3c2)SCC1=O | > 50
COC(=O)C1=C(Nc2ccc3ccccc3c2)SCC1=O | > 50
Cc1ccc(NC2=C(C(N)=O)C(=O)CS2)cc1C | > 50

Biological target: T1, Dihydroorotate dehydrogenase (Plasmodium falciparum, UniProt Q54A96)
T1 sequence (Q54A96 whole entry): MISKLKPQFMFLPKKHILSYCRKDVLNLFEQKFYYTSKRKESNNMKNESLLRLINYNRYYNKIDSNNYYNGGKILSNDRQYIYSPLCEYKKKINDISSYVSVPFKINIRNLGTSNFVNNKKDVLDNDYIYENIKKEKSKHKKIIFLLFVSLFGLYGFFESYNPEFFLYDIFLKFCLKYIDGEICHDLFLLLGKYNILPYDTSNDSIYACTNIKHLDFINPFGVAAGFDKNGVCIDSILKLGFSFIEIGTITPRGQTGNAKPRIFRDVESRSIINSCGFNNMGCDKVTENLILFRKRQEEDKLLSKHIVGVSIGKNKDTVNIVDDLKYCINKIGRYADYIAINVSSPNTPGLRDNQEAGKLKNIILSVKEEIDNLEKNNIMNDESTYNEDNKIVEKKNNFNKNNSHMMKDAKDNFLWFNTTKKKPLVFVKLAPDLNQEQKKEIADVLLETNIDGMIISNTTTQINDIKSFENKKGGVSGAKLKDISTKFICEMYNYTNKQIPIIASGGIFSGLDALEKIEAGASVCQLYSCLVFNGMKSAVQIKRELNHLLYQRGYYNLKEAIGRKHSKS
Assay: Inhibition of Plasmodium falciparum DHODH (Phe158 to Ser569) expressed in Escherichia coli BL21 using dihydroorotate as substrate measured every 30 secs for 6 mins by DCIP dye-based assay
Details: not given

Compound | IC50 [µM]
CCOC(=O)C1=C(Nc2ccc(Cl)cc2)SCC1=O | 1.11
CCCNC(=O)C1=C(Nc2ccc(C)c(C)c2)SCC1=O | 4.63
Cc1ccc(NC2=C(C(=O)NCC3CC3)C(=O)CS2)cc1C | 3.66
COC(=O)C1=C(Nc2ccc(C)c(C)c2)SCC1=O | 1.49
CCOC(=O)C1=C(Nc2ccc(S(F)(F)(F)(F)F)cc2)SCC1=O | 0.559
CCOC(=O)C1=C(Nc2ccc(C)c(C)c2)OCC1=O | 0.698
CCOC(=O)C1=C(Nc2ccc(C(F)(F)F)cc2)SCC1=O | 0.367
CCCCOC(=O)C1=C(Nc2ccc3ccccc3c2)SCC1=O | 35.6
CCCOC(=O)C1=C(Nc2ccc(C)c(C)c2)SCC1=O | 4.03
CCOC(=O)C1=C(Nc2cccc(C(F)(F)F)c2)SCC1=O | > 50
Cc1ccc(NC2=C(C(=O)O)C(=O)CS2)cc1C | > 50
O=C1CSC(Nc2ccc3ccccc3c2)=C1C(=O)NC1CC1 | 13.2
CCOC(=O)C1=C(Nc2ccc3cc4ccccc4cc3c2)SCC1=O | 0.197
CCOC(=O)C1=C(Nc2cnc3ccccc3c2)OCC1=O | 0.079
CCOC(=O)C1=C(Nc2ccc(C(F)(F)F)cc2)OCC1=O | 0.142
CCOC(=O)C1=C(Nc2ccc(C)c(F)c2)SCC1=O | 0.536
CCOC(=O)C1=C(Nc2ccc(S(F)(F)(F)(F)F)cc2)OCC1=O | 0.168
CCNC(=O)C1=C(Nc2ccc3ccccc3c2)SCC1=O | 12.1
Cc1ccc(NC2=C(C(=O)NC3CC3)C(=O)CS2)cc1C | 19.1
CCOC(=O)C1=C(Nc2cc(Cl)cc(Cl)c2)SCC1=O | 1.19
CCCCNC(=O)C1=C(Nc2ccc3ccccc3c2)SCC1=O | > 50
COC(=O)C1=C(Nc2ccc3ccccc3c2)SCC1=O | 0.033
Cc1ccc(NC2=C(C(N)=O)C(=O)CS2)cc1C | > 50

Test system: Plasmodium falciparum
Assay: microbe, parasite or virus in culture
Details: Dd2, 72 h
Description: Antiplasmodial activity against chloroquine-resistant Plasmodium falciparum Dd2 infected in erythrocytes assessed as parasite growth inhibition after 72 hrs by SYBR green 1 dye-based fluorometric analysis

Compound | IC50 [µM]
CCOC(=O)C1=C(Nc2ccc(Cl)cc2)SCC1=O | > 20
CCCNC(=O)C1=C(Nc2ccc(C)c(C)c2)SCC1=O | 3.93
Cc1ccc(NC2=C(C(=O)NCC3CC3)C(=O)CS2)cc1C | 3.5
COC(=O)C1=C(Nc2ccc(C)c(C)c2)SCC1=O | 1.27
CCOC(=O)C1=C(Nc2ccc(S(F)(F)(F)(F)F)cc2)SCC1=O | 0.697
CCOC(=O)C1=C(Nc2ccc(C)c(C)c2)OCC1=O | 0.486
CCOC(=O)C1=C(Nc2ccc(C(F)(F)F)cc2)SCC1=O | 1.04
CCCCOC(=O)C1=C(Nc2ccc3ccccc3c2)SCC1=O | 5.23
CCCOC(=O)C1=C(Nc2ccc(C)c(C)c2)SCC1=O | 1.69
CCOC(=O)C1=C(Nc2cccc(C(F)(F)F)c2)SCC1=O | 13.6
Cc1ccc(NC2=C(C(=O)O)C(=O)CS2)cc1C | > 20
O=C1CSC(Nc2ccc3ccccc3c2)=C1C(=O)NC1CC1 | 7.94
CCOC(=O)C1=C(Nc2ccc3cc4ccccc4cc3c2)SCC1=O | 1.13
CCOC(=O)C1=C(Nc2cnc3ccccc3c2)OCC1=O | 0.517
CCOC(=O)C1=C(Nc2ccc(C(F)(F)F)cc2)OCC1=O | 0.867
CCOC(=O)C1=C(Nc2ccc(C)c(F)c2)SCC1=O | 3.73
CCOC(=O)C1=C(Nc2ccc(S(F)(F)(F)(F)F)cc2)OCC1=O | 1.06
CCNC(=O)C1=C(Nc2ccc3ccccc3c2)SCC1=O | 8.49
Cc1ccc(NC2=C(C(=O)NC3CC3)C(=O)CS2)cc1C | 5.53
CCOC(=O)C1=C(Nc2cc(Cl)cc(Cl)c2)SCC1=O | 6
CCCCNC(=O)C1=C(Nc2ccc3ccccc3c2)SCC1=O | 4.03
COC(=O)C1=C(Nc2ccc3ccccc3c2)SCC1=O | 0.4
Cc1ccc(NC2=C(C(N)=O)C(=O)CS2)cc1C | > 20

Test system: Plasmodium falciparum
Assay: microbe, parasite or virus in culture
Details: 3D7, 72 h
Description: Antiplasmodial activity against chloroquine-sensitive Plasmodium falciparum 3D7 infected in erythrocytes assessed as parasite growth inhibition after 72 hrs by SYBR green 1 dye-based fluorometric analysis

Compound | IC50 [µM]
CCOC(=O)C1=C(Nc2ccc(Cl)cc2)SCC1=O | > 20
CCCNC(=O)C1=C(Nc2ccc(C)c(C)c2)SCC1=O | 3.17
Cc1ccc(NC2=C(C(=O)NCC3CC3)C(=O)CS2)cc1C | 3.34
COC(=O)C1=C(Nc2ccc(C)c(C)c2)SCC1=O | 1.02
CCOC(=O)C1=C(Nc2ccc(S(F)(F)(F)(F)F)cc2)SCC1=O | 0.307
CCOC(=O)C1=C(Nc2ccc(C)c(C)c2)OCC1=O | 0.372
CCOC(=O)C1=C(Nc2ccc(C(F)(F)F)cc2)SCC1=O | 0.946
CCCCOC(=O)C1=C(Nc2ccc3ccccc3c2)SCC1=O | 8.38
CCCOC(=O)C1=C(Nc2ccc(C)c(C)c2)SCC1=O | 2.11
CCOC(=O)C1=C(Nc2cccc(C(F)(F)F)c2)SCC1=O | 14.4
Cc1ccc(NC2=C(C(=O)O)C(=O)CS2)cc1C | > 20
O=C1CSC(Nc2ccc3ccccc3c2)=C1C(=O)NC1CC1 | 10.2
CCOC(=O)C1=C(Nc2ccc3cc4ccccc4cc3c2)SCC1=O | 0.688
CCOC(=O)C1=C(Nc2cnc3ccccc3c2)OCC1=O | 0.492
CCOC(=O)C1=C(Nc2ccc(C(F)(F)F)cc2)OCC1=O | 0.607
CCOC(=O)C1=C(Nc2ccc(C)c(F)c2)SCC1=O | 5.05
CCOC(=O)C1=C(Nc2ccc(S(F)(F)(F)(F)F)cc2)OCC1=O | 0.68
CCNC(=O)C1=C(Nc2ccc3ccccc3c2)SCC1=O | 11.1
Cc1ccc(NC2=C(C(=O)NC3CC3)C(=O)CS2)cc1C | 6.62
CCOC(=O)C1=C(Nc2cc(Cl)cc(Cl)c2)SCC1=O | 4.03
CCCCNC(=O)C1=C(Nc2ccc3ccccc3c2)SCC1=O | 5.83
COC(=O)C1=C(Nc2ccc3ccccc3c2)SCC1=O | 0.245
Cc1ccc(NC2=C(C(N)=O)C(=O)CS2)cc1C | > 20
